Results taken from the NIST ThermoML archive (doi:10.1016/j.jct.2009.07.013).

Conditions: Liquid, Vibrating tube method

Cc1ccccc1 [toluene]
mass density [kg/m3]
Conditions | 298.15 K | 323.15 K | 348.15 K | 373.15 K | 398.15 K
100 kPa | 862 | 838.7 | 814.6 | – | –
1000 kPa | 862.7 | 839.5 | 815.6 | 791.1 | 765.3
5000 kPa | 865.7 | 843.1 | 819.8 | 796 | 771.3
10000 kPa | 869.4 | 847.4 | 824.7 | 801.8 | 778.3
15000 kPa | 873 | 851.5 | 829.5 | 807.3 | 784.7
20000 kPa | 876.4 | 855.4 | 834 | 812.5 | 790.8
30000 kPa | 882.9 | 862.7 | 842.4 | 822 | 801.6
40000 kPa | 889 | 869.5 | 850 | 830.6 | 811.2
45000 kPa | 891.9 | 872.7 | 853.6 | 834.6 | 815.7
50000 kPa | 894.7 | 875.9 | 857.1 | 838.4 | 819.9
60000 kPa | 900.2 | 881.9 | 863.8 | 845.8 | 828

CC(C)CCCC(C)CCCC(C)CCCCC(C)CCCC(C)CCCC(C)C (stereo unspecified) [2,6,10,15,19,23-hexamethyltetracosane]
mass density [kg/m3]
Conditions | 298.15 K | 323.15 K | 348.15 K | 373.15 K | 398.15 K
100 kPa | 804.9 | 789 | 773 | – | –
1000 kPa | 805.4 | 789.6 | 773.7 | 758 | 742.1
5000 kPa | 807.8 | 792.3 | 776.7 | 761.3 | 745.9
10000 kPa | 810.7 | 795.5 | 780.3 | 765.3 | 750.4
15000 kPa | 813.4 | 798.6 | 783.7 | 769.1 | 754.6
20000 kPa | 816.1 | 801.5 | 787 | 772.7 | 758.6
30000 kPa | 821.2 | 807.1 | 793.2 | 779.5 | 766.1
40000 kPa | 826 | 812.3 | 799 | 785.8 | 772.9
45000 kPa | 828.3 | 814.8 | 801.7 | 788.7 | 776.1
50000 kPa | 830.5 | 817.2 | 804.3 | 791.6 | 779.1
60000 kPa | 834.8 | 821.9 | 809.3 | 797.1 | 785
